pEC50: −log10 of the molar value. ≈ marks a conversion by molar mass, not a printed value. Where two headings read alike, the source gives them in different places. Starred links: 1 amine or outer side, 2 acyl side, 3 side chain; linkers in the order of their positions; H or OH if unused. Positions of bridges follow the written chain, without caps; N, C: chain ends. Residues, ends and D or L forms follow the SMILES beside them. *: point of attachment. C20 diacid = O=C(O)CCCCCCCCCCCCCCCCCCC(=O)*; γGlu = O=C(O)[C@H](CCC(=O)[*:2])N[*:1]
What was measured:
[1] = target: T1, human calcitonin receptor (Homo sapiens, UniProt P30988); assay: Assay (II)a functional CRE-luciferase assay, human calcitonin receptor; type: cell-based; conditions: Table 7; human calcitonin (CTa) receptor
T1 construct: expressed in transfected cells; host or cells: BHK570
T1 sequence (P30988 25-474): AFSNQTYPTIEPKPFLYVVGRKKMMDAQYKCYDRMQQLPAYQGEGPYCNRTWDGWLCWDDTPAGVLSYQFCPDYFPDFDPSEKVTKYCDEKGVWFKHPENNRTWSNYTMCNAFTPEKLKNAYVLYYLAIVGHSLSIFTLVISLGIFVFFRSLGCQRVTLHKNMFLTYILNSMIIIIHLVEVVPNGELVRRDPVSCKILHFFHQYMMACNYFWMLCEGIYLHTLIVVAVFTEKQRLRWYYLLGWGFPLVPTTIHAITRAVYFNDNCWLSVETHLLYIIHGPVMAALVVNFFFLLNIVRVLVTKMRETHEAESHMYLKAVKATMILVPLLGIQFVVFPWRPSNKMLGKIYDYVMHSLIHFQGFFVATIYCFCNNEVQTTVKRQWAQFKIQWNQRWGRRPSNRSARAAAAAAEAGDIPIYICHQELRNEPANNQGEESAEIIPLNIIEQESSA

[2] = Assay (IV) determination of solubility; type: physicochemical
Summary of the method: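 Eight 100 mM buffers (glycylglycine pH 3.0–5.0, bistrispropane pH 6.0–8.0) each received an equal volume of polypeptide dissolved in water at ~500 nmol/ml. Soluble polypeptide was measured by HPLC following 18 hours at room temperature and centrifugation.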

[3] = target: T2, human amylin receptor (amylin 3(a) receptor: human calcitonin receptor + RAMP-3) (Homo sapiens, UniProt O60896+P30988); assay: Assay (II)a functional CRE-luciferase assay, human amylin receptor; type: cell-based; conditions: Table 2; BHK amylin 3(a)-receptor/CRE-luc cells
T2 construct: expressed in transfected cells; host or cells: BHK570
T2 sequence (P30988 25-474): T1 sequence (P30988 25-474)
T2 sequence (O60896 24-148 partner): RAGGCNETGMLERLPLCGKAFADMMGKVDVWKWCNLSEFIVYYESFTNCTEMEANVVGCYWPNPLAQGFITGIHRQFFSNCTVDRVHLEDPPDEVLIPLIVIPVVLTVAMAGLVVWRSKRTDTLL

[4] = target: T3, rat amylin 3(a) receptor (rat calcitonin(a) receptor + rat RAMP3) (Rattus norvegicus, UniProt P32214+Q9JJ73); assay: Assay (II)b functional cAMP FlashPlate assay, rat amylin receptor; type: cell-based; conditions: Table 11
T3 construct: expressed in transfected cells; host or cells: BHK tk'ts 13
T3 sequence (P32214 25-479 isoform P32214-2 limits assumed): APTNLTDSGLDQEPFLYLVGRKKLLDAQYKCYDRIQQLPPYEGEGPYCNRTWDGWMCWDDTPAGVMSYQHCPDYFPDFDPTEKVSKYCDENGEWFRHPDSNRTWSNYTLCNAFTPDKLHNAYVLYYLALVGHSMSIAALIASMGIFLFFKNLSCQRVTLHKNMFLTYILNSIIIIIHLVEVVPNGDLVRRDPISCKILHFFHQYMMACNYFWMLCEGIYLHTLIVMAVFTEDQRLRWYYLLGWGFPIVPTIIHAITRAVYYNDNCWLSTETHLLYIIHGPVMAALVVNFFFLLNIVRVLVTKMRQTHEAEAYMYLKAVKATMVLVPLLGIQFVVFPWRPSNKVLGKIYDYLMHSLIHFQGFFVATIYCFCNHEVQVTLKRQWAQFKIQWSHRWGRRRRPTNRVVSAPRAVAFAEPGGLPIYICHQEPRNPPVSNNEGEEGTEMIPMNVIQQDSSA
T3 sequence (Q9JJ73 23-147 partner): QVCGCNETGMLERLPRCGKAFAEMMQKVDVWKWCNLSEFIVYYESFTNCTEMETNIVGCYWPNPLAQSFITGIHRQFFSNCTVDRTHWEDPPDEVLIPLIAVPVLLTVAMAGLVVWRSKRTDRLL
Summary of the method: (§1)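 cAMP accumulation in transiently transfected BHK tk'ts 13 cells, 100.000 cells/well, expressing rat calcitonin(a) receptor or its RAMP3 co-expression form (amylin 3(a)): 30 min stimulation with IBMX, 24 hours post-transfection. Readout by competition of cellular versus radiolabelled cAMP in FlashPlates, scintillation counted after 3 h.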

[5] = target: T4, rat calcitonin (a) receptor (Rattus norvegicus, UniProt P32214); assay: Assay (II)b functional cAMP FlashPlate assay, rat calcitonin receptor; type: cell-based; conditions: Table 11; read-out: CTa receptor rat EC50
T4 construct: expressed in transfected cells; host or cells: BHK tk'ts 13
T4 sequence (P32214 25-479 isoform P32214-2 limits assumed): T3 sequence (P32214 25-479 isoform P32214-2 limits assumed)
Summary of the method: as §1

pEC50 [1]: 9.78 | solubility at 18 h ([2]; bistrispropane buffer, pH 6, pH 6.0, read-out: Solubility pH 6.0): 160 µM (≈ 736 µg/mL) | solubility at 18 h ([2]; bistrispropane buffer, pH 6.5, pH 6.5, read-out: Solubility pH 6.5): 66 µM (≈ 304 µg/mL) | solubility at 18 h ([2]; bistrispropane buffer, pH 7, pH 7.0, read-out: Solubility pH 7.0): 88 µM (≈ 405 µg/mL) | solubility at 18 h ([2]; bistrispropane buffer, pH 7.5, pH 7.5, read-out: Solubility pH 7.5): > 200 µM | solubility at 18 h ([2]; bistrispropane buffer, pH 8, pH 8.0, read-out: Solubility pH 8.0): > 200 µM | solubility at 18 h ([2]; glycylglycine buffer, pH 3, pH 3.0, read-out: Solubility pH 3.0): > 200 µM | solubility at 18 h ([2]; glycylglycine buffer, pH 4, pH 4.0, 18 hours at room temperature, Table 2, read-out: Solubility pH 4.0): > 200 µM | solubility at 18 h ([2]; glycylglycine buffer, pH 4, pH 4.0, read-out: Solubility pH 4.0): > 200 µM | solubility at 18 h ([2]; glycylglycine buffer, pH 5, pH 5.0, read-out: Solubility pH 5.0): > 200 µM | pEC50 [3]: 9.95 | pEC50 [4]: 9.83 | pEC50 [5]: 9.66
SMILES: CC[C@H](C)[C@H](NC(=O)[C@@H]1CCCN1C(=O)CNC(=O)[C@H](Cc1ccccc1)NC(=O)[C@H](CC(N)=O)NC(=O)[C@H](CC(N)=O)NC(=O)[C@H](CO)NC(=O)[C@H](CO)NC(=O)[C@H](Cc1cnc[nH]1)NC(=O)[C@H](Cc1cnc[nH]1)NC(=O)[C@H](CC(C)C)NC(=O)[C@H](Cc1ccccc1)NC(=O)[C@H](CCC(=O)O)NC(=O)[C@H](C)NC(=O)[C@H](CC(C)C)NC(=O)[C@H](CCCNC(=N)N)NC(=O)[C@H](CCC(N)=O)NC(=O)[C@@H](NC(=O)[C@H](C)NC(=O)[C@@H]1CSSC[C@H](NC(=O)[C@H](Cc2cnc[nH]2)NC(=O)[C@H](Cc2cnc[nH]2)NC(=O)CC[C@H](NC(=O)CCCCCCCCCCCCCCCCCCC(=O)O)C(=O)O)C(=O)N[C@@H](CC(N)=O)C(=O)N[C@@H]([C@@H](C)O)C(=O)N[C@@H](C)C(=O)N[C@@H]([C@@H](C)O)C(=O)N1)[C@@H](C)O)C(=O)N[C@@H](CC(C)C)C(=O)N1CCC[C@H]1C(=O)N1CCC[C@H]1C(=O)N[C@H](C(=O)N[C@@H](CC(N)=O)C(=O)N[C@H](C(=O)NCC(=O)N[C@@H](CO)C(=O)N[C@@H](CC(N)=O)C(=O)N[C@H](C(=O)N[C@@H](Cc1ccc(O)cc1)C(N)=O)[C@@H](C)O)C(C)C)[C@@H](C)O [Example 17, N-alpha-[(S)-4-Carboxy-4-(19-carboxynonadecanoylamino)butyryl]-His-[His1,Glu14,His17]-pramlintide] ({C20 diacid-γGlu}-HHCNTATCATQRLAEFLHHSSNNFGPILPPTNVGSNTY-NH2; disulfide 3-8)

Reference: patent US8722849B2, “Polypeptides” (Novo Nordisk A/S, priority 2011, dated 2014)
